{"source": "patent US12102648B2", "about": "“Orally-bioavailable nucleoside analogs” (priority 2021, dated 2024)", "assay": "in vitro", "format": "in vitro ADME", "conditions": "human", "outline": "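Permeability measured in both directions across 19-day Caco-2 layers with TEER above 600 […], incubated at 37° C without shaking; donor and receiver sampled at 10 and 90 min for LC/MS/MS. Derived values: Papp (cm/s), efflux ratio, recovery.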", "key": {"[1]": {"conditions": "Caco-2 monolayer, apical to basolateral, 90-minute incubation, read-out: Papp, A-B"}, "[2]": {"conditions": "Caco-2 monolayer, basolateral to apical, 90-minute incubation, read-out: Papp, B-A"}, "[3]": {"conditions": "Caco-2 monolayer, ER>2 indicates potential efflux transporter substrate, read-out: ER (efflux ratio)"}}, "note": "Where two headings read alike, the source gives them in different places.", "data": [{"molecule": "CC(C)CC(=O)OC[C@H]1O[C@@](C#N)(c2ccc3c(N)ncnn23)[C@H](O)[C@@H]1OC(=O)CC1CCCCC1", "note": "[Compound 18, ((2R,3S,4R,5R)-5-(4-aminopyrrolo[2,1-f][1,2,4]triazin-7-yl)-5-cyano-3-(2-cyclohexylacetoxy)-4-hydroxytetrahydrofuran-2-yl)methyl 3-methylbutanoate]", "values": [{"measurement": "Papp A→B at 90 min", "setting": "Caco-2", "result": 16, "unit": "×10⁻⁶ cm/s"}, {"measurement": "Papp B→A at 90 min", "setting": "Caco-2", "result": 8.8, "unit": "×10⁻⁶ cm/s"}, {"measurement": "efflux ratio at 90 min", "setting": "Caco-2", "result": 0.6}]}, {"molecule": "CCC(=O)OC[C@H]1O[C@@](C#N)(c2ccc3c(N)ncnn23)[C@H](O)[C@@H]1OC(=O)Cc1ccccc1", "note": "[Compound 68, ((2R,3S,4R,5R)-5-(4-aminopyrrolo[2,1-f][1,2,4]triazin-7-yl)-5-cyano-4-hydroxy-3-(2-phenylacetoxy)tetrahydrofuran-2-yl)methyl propionate]", "values": [{"measurement": "Papp A→B at 90 min", "setting": "[1]", "result": 3.3, "unit": "×10⁻⁶ cm/s"}, {"measurement": "Papp B→A at 90 min", "setting": "[2]", "result": 9.3, "unit": "×10⁻⁶ cm/s"}, {"measurement": "efflux ratio at 90 min", "setting": "[3]", "result": 2.8}]}, {"molecule": "N#C[C@@]1(c2ccc3c(NC(=O)[C@@H](N)Cc4ccc(F)cc4)ncnn23)O[C@H](CO)[C@@H](OC(=O)CC2(N)CCCCC2)[C@H]1O", "note": "[Compound 345, (2R,3S,4R,5R)-5-(4-((S)-2-amino-3-(4-fluorophenyl)propanamido)pyrrolo[2,1-f][1,2,4]triazin-7-yl)-5-cyano-4-hydroxy-2-(hydroxymethyl)tetrahydrofuran-3-yl 2-(1-aminocyclohexyl)acetate]", "values": [{"measurement": "Papp A→B at 90 min", "setting": "Caco-2", "result": 0.09, "unit": "×10⁻⁶ cm/s"}, {"measurement": "Papp B→A at 90 min", "setting": "Caco-2", "result": 3.9, "unit": "×10⁻⁶ cm/s"}, {"measurement": "efflux ratio at 90 min", "setting": "Caco-2", "result": 43}]}, {"molecule": "CC(C)C(=O)Nc1ncnn2c([C@]3(C#N)O[C@H](COC(=O)Cc4ccccc4)[C@@H](OC(=O)[C@@H](N)C(C)C)[C@H]3O)ccc12", "note": "[Compound 347, (2R,3S,4R,5R)-5-cyano-4-hydroxy-5-(4-isobutyramidopyrrolo[2,1-f][1,2,4]triazin-7-yl)-2-((2-phenylacetoxy)methyl)tetrahydrofuran-3-yl L-valinate]", "values": [{"measurement": "Papp A→B at 90 min", "setting": "[1]", "result": 7, "unit": "×10⁻⁶ cm/s"}, {"measurement": "Papp B→A at 90 min", "setting": "[2]", "result": 17, "unit": "×10⁻⁶ cm/s"}, {"measurement": "efflux ratio at 90 min", "setting": "[3]", "result": 2.4}]}, {"molecule": "CCCCC(=O)Nc1ncnn2c([C@]3(C#N)O[C@H](COC(=O)[C@@H](N)C(C)C)[C@@H](O)[C@H]3O)ccc12", "note": "[Compound 341, ((2R,3S,4R,5R)-5-cyano-3,4-dihydroxy-5-(4-pentanamidopyrrolo[2,1-f][1,2,4]triazin-7-yl)tetrahydrofuran-2-yl)methyl L-valinate]", "values": [{"measurement": "Papp A→B at 90 min", "setting": "Caco-2", "result": 0.13, "unit": "×10⁻⁶ cm/s"}, {"measurement": "Papp B→A at 90 min", "setting": "Caco-2", "result": 2.3, "unit": "×10⁻⁶ cm/s"}, {"measurement": "efflux ratio at 90 min", "setting": "Caco-2", "result": 18}]}, {"molecule": "CCC(=O)Nc1nc(NC)c2ncn([C@@H]3O[C@H](COC(C)=O)[C@@H](O)[C@@]3(C)F)c2n1", "note": "[Compound 330, ((2R,3R,4R,5R)-4-fluoro-3-hydroxy-4-methyl-5-(6-(methylamino)-2-propionamido-9H-purin-9-yl)tetrahydrofuran-2-yl)methyl acetate]", "values": [{"measurement": "Papp A→B at 90 min", "setting": "Caco-2", "result": 0.54, "unit": "×10⁻⁶ cm/s"}, {"measurement": "Papp B→A at 90 min", "setting": "Caco-2", "result": 7, "unit": "×10⁻⁶ cm/s"}, {"measurement": "efflux ratio at 90 min", "setting": "Caco-2", "result": 13}]}, {"molecule": "CC(C)[C@H](N)C(=O)O[C@H]1[C@@H](O)[C@](C#N)(c2ccc3c(N)ncnn23)O[C@@H]1COC(=O)CC1CCCCC1", "note": "[Compound 27, (2R,3S,4R,5R)-5-{4-aminopyrrolo[2,1-f][1,2,4]triazin-7-yl}-5-cyano-2-{[(2-cyclohexylacetyl)oxy]methyl}-4-hydroxyoxolan-3-yl (2S)-2-amino-3-methylbutanoate]", "values": [{"measurement": "Papp A→B at 90 min", "setting": "Caco-2", "result": 0.1, "unit": "×10⁻⁶ cm/s"}, {"measurement": "Papp B→A at 90 min", "setting": "Caco-2", "result": 9.9, "unit": "×10⁻⁶ cm/s"}, {"measurement": "efflux ratio at 90 min", "setting": "Caco-2", "result": 100}]}, {"molecule": "N#C[C@@]1(c2ccc3c(N)ncnn23)O[C@H](COC(=O)CC2(N)CCCCC2)[C@@H](OC(=O)CC2CCCCC2)[C@H]1O", "note": "[Compound 368, (2R,3S,4R,5R)-2-((2-(1-aminocyclohexyl)acetoxy)methyl)-5-(4-aminopyrrolo[2,1-f][1,2,4]triazin-7-yl)-5-cyano-4-hydroxytetrahydrofuran-3-yl 2-cyclohexylacetate]", "values": [{"measurement": "Papp A→B at 90 min", "setting": "Caco-2", "result": 1.4, "unit": "×10⁻⁶ cm/s"}, {"measurement": "Papp B→A at 90 min", "setting": "Caco-2", "result": 18, "unit": "×10⁻⁶ cm/s"}, {"measurement": "efflux ratio at 90 min", "setting": "Caco-2", "result": 13}]}, {"molecule": "CCC(=O)O[C@H]1[C@@H](O)[C@](C#N)(c2ccc3c(N)ncnn23)O[C@@H]1COC(=O)CC1CCCCC1", "note": "[Compound 31, (2R,3S,4R,5R)-5-(4-aminopyrrolo[2,1-f][1,2,4]triazin-7-yl)-5-cyano-2-((2-cyclohexylacetoxy)methyl)-4-hydroxytetrahydrofuran-3-yl propionate]", "values": [{"measurement": "Papp A→B at 90 min", "setting": "Caco-2", "result": 5.6, "unit": "×10⁻⁶ cm/s"}, {"measurement": "Papp B→A at 90 min", "setting": "Caco-2", "result": 5.6, "unit": "×10⁻⁶ cm/s"}, {"measurement": "efflux ratio at 90 min", "setting": "Caco-2", "result": 1}]}, {"molecule": "N#C[C@@]1(c2ccc3c(N)ncnn23)O[C@H](COC(=O)CC2CCCC2)[C@@H](O)[C@H]1O", "note": "[Compound 259, ((2R,3S,4R,5R)-5-(4-aminopyrrolo[2,1-f][1,2,4]triazin-7-yl)-5-cyano-3,4-dihydroxytetrahydrofuran-2-yl)methyl 2-cyclopentylacetate]", "values": [{"measurement": "Papp A→B at 90 min", "setting": "Caco-2", "result": 2, "unit": "×10⁻⁶ cm/s"}, {"measurement": "Papp B→A at 90 min", "setting": "Caco-2", "result": 0.6, "unit": "×10⁻⁶ cm/s"}, {"measurement": "efflux ratio at 90 min", "setting": "Caco-2", "result": 0.3}]}, {"molecule": "CC(=O)OC[C@H]1O[C@@](C#N)(c2ccc3c(N)ncnn23)[C@H](O)[C@@H]1OC(=O)C(C)C", "note": "[Compound 54, (2R,3S,4R,5R)-2-(acetoxymethyl)-5-(4-aminopyrrolo[2,1-f][1,2,4]triazin-7-yl)-5-cyano-4-hydroxytetrahydrofuran-3-yl isobutyrate]", "values": [{"measurement": "Papp A→B at 90 min", "setting": "Caco-2", "result": 2.6, "unit": "×10⁻⁶ cm/s"}, {"measurement": "Papp B→A at 90 min", "setting": "Caco-2", "result": 2.4, "unit": "×10⁻⁶ cm/s"}, {"measurement": "efflux ratio at 90 min", "setting": "Caco-2", "result": 0.94}]}, {"molecule": "CCCCCOC(=O)Nc1ncnn2c([C@]3(C#N)O[C@H](COC(C)=O)[C@@H](O)[C@H]3O)ccc12", "note": "[Compound 87, ((2R,3S,4R,5R)-5-cyano-3,4-dihydroxy-5-(4-(((pentyloxy)carbonyl)amino)pyrrolo[2,1-f][1,2,4]triazin-7-yl)tetrahydrofuran-2-yl)methyl acetate]", "values": [{"measurement": "Papp A→B at 90 min", "setting": "Caco-2", "result": 5.5, "unit": "×10⁻⁶ cm/s"}, {"measurement": "Papp B→A at 90 min", "setting": "Caco-2", "result": 14, "unit": "×10⁻⁶ cm/s"}, {"measurement": "efflux ratio at 90 min", "setting": "Caco-2", "result": 2.7}]}, {"molecule": "CC(=O)O[C@H]1[C@@H](O)[C@](C#N)(c2ccc3c(N)ncnn23)O[C@@H]1COC(=O)[C@@H](N)C(C)C", "note": "[Compound 37, ((2R,3S,4R,5R)-3-acetoxy-5-(4-aminopyrrolo[2,1-f][1,2,4]triazin-7-yl)-5-cyano-4-hydroxytetrahydrofuran-2-yl)methyl L-valinate]", "values": [{"measurement": "Papp A→B at 90 min", "setting": "Caco-2", "result": 0.37, "unit": "×10⁻⁶ cm/s"}, {"measurement": "Papp B→A at 90 min", "setting": "Caco-2", "result": 0.12, "unit": "×10⁻⁶ cm/s"}, {"measurement": "efflux ratio at 90 min", "setting": "Caco-2", "result": 0.33}]}, {"molecule": "CCC(=O)OC[C@H]1O[C@@](C#N)(c2ccc3c(N)ncnn23)[C@H](O)[C@@H]1OC(=O)[C@@H](N)C(C)C", "note": "[Compound 67, (2R,3S,4R,5R)-5-{4-aminopyrrolo[2,1-f][1,2,4]triazin-7-yl}-5-cyano-4-hydroxy-2-[(propanoyloxy)methyl]oxolan-3-yl(2S)-2-amino-3-methylbutanoate]", "values": [{"measurement": "Papp A→B at 90 min", "setting": "Caco-2", "result": 0.3, "unit": "×10⁻⁶ cm/s"}, {"measurement": "Papp B→A at 90 min", "setting": "Caco-2", "result": 0.1, "unit": "×10⁻⁶ cm/s"}, {"measurement": "efflux ratio at 90 min", "setting": "Caco-2", "result": 0.33}]}, {"molecule": "N#C[C@@]1(c2ccc3c(N)ncnn23)O[C@H](COC(=O)CC2CCC(C(F)(F)F)CC2)[C@@H](O)[C@H]1O", "note": "(stereo partly drawn) [Compound 270, ((2R,3S,4R,5R)-5-(4-aminopyrrolo[2,1-f][1,2,4]triazin-7-yl)-5-cyano-3,4-dihydroxytetrahydrofuran-2-yl)methyl 2-(4-(trifluoromethyl)cyclohexyl)acetate]", "values": [{"measurement": "Papp A→B at 90 min", "setting": "Caco-2", "result": 1.9, "unit": "×10⁻⁶ cm/s"}, {"measurement": "Papp B→A at 90 min", "setting": "Caco-2", "result": 6.9, "unit": "×10⁻⁶ cm/s"}, {"measurement": "efflux ratio at 90 min", "setting": "Caco-2", "result": 3.7}]}, {"molecule": "CC(C)[C@H](N)C(=O)Nc1ncnn2c([C@]3(C#N)O[C@H](CO)[C@@H](OC(=O)[C@@H](N)C(C)C)[C@H]3O)ccc12", "note": "[Compound 129, (2R,3S,4R,5R)-5-{4-[(2S)-2-amino-3-methylbutanamido]pyrrolo[2,1-f][1,2,4]triazin-7-yl}-5-cyano-4-hydroxy-2-(hydroxymethyl)oxolan-3-yl (2S)-2-amino-3-methylbutanoate]", "values": [{"measurement": "Papp A→B at 90 min", "setting": "Caco-2", "result": 0.03, "unit": "×10⁻⁶ cm/s"}, {"measurement": "Papp B→A at 90 min", "setting": "Caco-2", "result": 0.02, "unit": "×10⁻⁶ cm/s"}, {"measurement": "efflux ratio at 90 min", "setting": "Caco-2", "result": 0.7}]}]}
